These results are taken from ChEMBL document CHEMBL4184139, “Adamantyl- and other polycyclic cage-based conjugates of desferrioxamine B (DFOB) for treating iron-mediated toxicity in cell models of Parkinson's disease” (Bioorg Med Chem Lett, 2017).

Molecules are shown by their SMILES. The source made the active and inactive calls. The calls are words filed in the database; no cut-off is given here.

Broadly, the logP is the decadic logarithm of the partition coefficient of the neutral form, usually between octanol and water. Lower therefore signals lower lipophilicity.

System in the first data set: not listed separately
The experiment in a line: Binding affinity to Fe3+ assessed as [M+2H]+ adduct formation by LC-MS/MS analysis.
Conditions: not given
Take `CC(=O)N(O)CCCCCNC(=O)CCC(=O)N(O)CCCCCNC(=O)CCC(=O)N(O)CCCCCNC(=O)CC12CC3CC(CC(O)(C3)C1)C2`: the result was Active.
Still for that read-out and setting: for `CC(=O)N(O)CCCCCNC(=O)CCC(=O)N(O)CCCCCNC(=O)CCC(=O)N(O)CCCCCNC(=O)CC12CC3CC(CC(Br)(C3)C1)C2` the value was “Active”; for `CC(=O)N(O)CCCCCNC(=O)CCC(=O)N(O)CCCCCNC(=O)CCC(=O)N(O)CCCCCNC(=O)[C@H]1C[C@H]2C=C[C@H]1C2`, “Active”.

In another data set the test system is SK-N-BE(2)-M17. Briefly: Cytoprotection against H2O2-induced cell death in human SK-N-BE(2)-M17 cells assessed as increase in cell viability at 100 uM pretreated for 2 hrs followed by 1 mM H2O2 addition measured after 24 hrs by LDH assay.
Conditions: not given
It counts as functional, cell-based.
With `CC(=O)N(O)CCCCCNC(=O)CCC(=O)N(O)CCCCCNC(=O)CCC(=O)N(O)CCCCCNC(=O)CC12CC3CC(CC(O)(C3)C1)C2`, the result was Active.
With `CC(=O)N(O)CCCCCNC(=O)CCC(=O)N(O)CCCCCNC(=O)CCC(=O)N(O)CCCCCNC(=O)CC12CC3CC(CC(Br)(C3)C1)C2`, the result was inactive.
On the same count and under the same terms, for `CC(=O)N(O)CCCCCNC(=O)CCC(=O)N(O)CCCCCNC(=O)CCC(=O)N(O)CCCCCNC(=O)[C@H]1C[C@H]2C=C[C@H]1C2` the value was “Active”.

Another data set relates to SK-N-BE(2)-M17. Briefly: Cytoprotection against PQ-induced cell death in human SK-N-BE(2)-M17 cells assessed as increase in cell viability at 100 uM treated post 200 uM Fecl3 and 1 mM PQ treatment measured after 24 hrs by LDH assay. It counts as functional, cell-based.
Conditions: not given
Take `CC(=O)N(O)CCCCCNC(=O)CCC(=O)N(O)CCCCCNC(=O)CCC(=O)N(O)CCCCCNC(=O)[C@H]1C[C@H]2C=C[C@H]1C2`: the outcome was Active.

Another data set concerns SK-N-BE(2)-M17. The experiment in a line: Cytoprotection against H2O2-induced cell death in human SK-N-BE(2)-M17 cells assessed as increase in cell viability at 100 uM pretreated for 2 hrs followed by 1 mM H2O2 addition measured after 24 hrs by MTT assay. The class given is functional, cell-based.
Conditions: not given
In the case of `CC(=O)N(O)CCCCCNC(=O)CCC(=O)N(O)CCCCCNC(=O)CCC(=O)N(O)CCCCCNC(=O)CC12CC3CC(CC(O)(C3)C1)C2`, the outcome was Active.
As for `CC(=O)N(O)CCCCCNC(=O)CCC(=O)N(O)CCCCCNC(=O)CCC(=O)N(O)CCCCCNC(=O)CC12CC3CC(CC(Br)(C3)C1)C2`, the outcome was inactive.
On the same count and under the same terms, for `CC(=O)N(O)CCCCCNC(=O)CCC(=O)N(O)CCCCCNC(=O)CCC(=O)N(O)CCCCCNC(=O)[C@H]1C[C@H]2C=C[C@H]1C2` the value was “Active”.

The test system of the next data set is SK-N-BE(2)-M17. Briefly: Cytoprotection against PQ-induced cell death in human SK-N-BE(2)-M17 cells assessed as increase in cell viability at 100 uM treated 2 hrs post 2 mM PQ treatment measured after 24 hrs by LDH assay. It counts as functional, cell-based.
Conditions: not given
As for `CC(=O)N(O)CCCCCNC(=O)CCC(=O)N(O)CCCCCNC(=O)CCC(=O)N(O)CCCCCNC(=O)CC12CC3CC(CC(Br)(C3)C1)C2`, the result was inactive.
On to `CC(=O)N(O)CCCCCNC(=O)CCC(=O)N(O)CCCCCNC(=O)CCC(=O)N(O)CCCCCNC(=O)[C@H]1C[C@H]2C=C[C@H]1C2`, for which the result was Active.

System in the next data set: not listed separately
Briefly: Octanol-water partition coefficient, log P of the compound at 1 mg by RP-HPLC analysis. It counts as physicochemical.
Conditions: not given
`COC(=O)c1ccccc1C(=O)OC` [DIMETHYL PHTHALATE] gave a logP of 1.59.
Same read-out and setting: for `CC(=O)N(O)CCCCCNC(=O)CCC(=O)N(O)CCCCCNC(=O)CCC(=O)N(O)CCCCCNC(=O)CC12CC3CC(CC(O)(C3)C1)C2` the value was 0.15.
Same read-out and setting: for `CC(=O)N(O)CCCCCNC(=O)CCC(=O)N(O)CCCCCNC(=O)CCC(=O)N(O)CCCCCNC(=O)CC12CC3CC(CC(Br)(C3)C1)C2` the value was 1.84; for `c1ccc2c(c1)oc1ccccc12` [DIBENZOFURAN], 3.76.
For the molecule `c1ccc2ccccc2c1`, the logP was 3.27.
Still for that read-out and setting: for `CC(=O)N(O)CCCCCNC(=O)CCC(=O)N(O)CCCCCNC(=O)CCC(=O)N(O)CCCCCNC(=O)[C@H]1C[C@H]2C=C[C@H]1C2` the value was 0.5 to 1.4.

In a further data set the test system is SK-N-BE(2)-M17. Briefly: Cytoprotection against PQ-induced cell death in human SK-N-BE(2)-M17 cells assessed as increase in cell viability at 100 uM treated post 200 uM Fecl3 and 1 mM PQ treatment measured after 24 hrs by MTT assay. The class given is functional, cell-based.
Conditions: not given
(Tetrazolium assays rely on reduction of a dye to a coloured formazan, in cell work by metabolically active cells.)
For `CC(=O)N(O)CCCCCNC(=O)CCC(=O)N(O)CCCCCNC(=O)CCC(=O)N(O)CCCCCNC(=O)[C@H]1C[C@H]2C=C[C@H]1C2`, the outcome was Active.

The subject of a further data set is SK-N-BE(2)-M17. Briefly: Cytotoxicity against human SK-N-BE(2)-M17 cells at 100 uM 24 hrs by MTT assay. To be noted: sk-n-be(2)-m17, 24 h. The class given is cell-based.
For `CC(=O)N(O)CCCCCNC(=O)CCC(=O)N(O)CCCCCNC(=O)CCC(=O)N(O)CCCCCNC(=O)CC12CC3CC(CC(O)(C3)C1)C2`, the Activity result is “Non-Toxic”.
`CC(=O)N(O)CCCCCNC(=O)CCC(=O)N(O)CCCCCNC(=O)CCC(=O)N(O)CCCCCNC(=O)CC12CC3CC(CC(Br)(C3)C1)C2`: the Activity entry is listed as “Non-Toxic”.
On the same count and under the same terms, for `CC(=O)N(O)CCCCCNC(=O)CCC(=O)N(O)CCCCCNC(=O)CCC(=O)N(O)CCCCCNC(=O)[C@H]1C[C@H]2C=C[C@H]1C2` the value was “Non-Toxic”.

For the next data set, the system named is SK-N-BE(2)-M17. The experiment in a line: Cytoprotection against PQ-induced cell death in human SK-N-BE(2)-M17 cells assessed as increase in cell viability at 100 uM pretreated for 2 hrs followed by 1 mM PQ addition measured after 24 hrs by LDH assay.
Conditions: not given
It counts as functional, cell-based.
Take `CC(=O)N(O)CCCCCNC(=O)CCC(=O)N(O)CCCCCNC(=O)CCC(=O)N(O)CCCCCNC(=O)CC12CC3CC(CC(O)(C3)C1)C2`: the outcome was Active.
Still for that read-out and setting: for `CC(=O)N(O)CCCCCNC(=O)CCC(=O)N(O)CCCCCNC(=O)CCC(=O)N(O)CCCCCNC(=O)CC12CC3CC(CC(Br)(C3)C1)C2` the value was “inactive”; for `CC(=O)N(O)CCCCCNC(=O)CCC(=O)N(O)CCCCCNC(=O)CCC(=O)N(O)CCCCCNC(=O)[C@H]1C[C@H]2C=C[C@H]1C2`, “Active”.

System in a further data set: not listed separately
Briefly: Binding affinity to Fe3+ assessed as change in retention time for compound-Fe3+ complex by RP-HPLC analysis relative to free ligand.
Conditions: not given
For `CC(=O)N(O)CCCCCNC(=O)CCC(=O)N(O)CCCCCNC(=O)CCC(=O)N(O)CCCCCNC(=O)CC12CC3CC(CC(O)(C3)C1)C2`, the Retention time was -0.52 min.
On the same count and under the same terms, for `CC(=O)N(O)CCCCCNC(=O)CCC(=O)N(O)CCCCCNC(=O)CCC(=O)N(O)CCCCCNC(=O)CC12CC3CC(CC(Br)(C3)C1)C2` the value was 1.09 min; for `CC(=O)N(O)CCCCCNC(=O)CCC(=O)N(O)CCCCCNC(=O)CCC(=O)N(O)CCCCCNC(=O)[C@H]1C[C@H]2C=C[C@H]1C2`, -0.52 to 0 min.

The subject of another data set is SK-N-BE(2)-M17. The experiment in a line: Cytoprotection against H2O2-induced cell death in human SK-N-BE(2)-M17 cells assessed as increase in cell viability at 100 uM treated 2 hrs post 0.8 mM H2O2 treatment measured after 24 hrs by LDH assay. The class given is functional, cell-based.
Conditions: not given
For `CC(=O)N(O)CCCCCNC(=O)CCC(=O)N(O)CCCCCNC(=O)CCC(=O)N(O)CCCCCNC(=O)CC12CC3CC(CC(Br)(C3)C1)C2`, the outcome was inactive.
For the molecule `CC(=O)N(O)CCCCCNC(=O)CCC(=O)N(O)CCCCCNC(=O)CCC(=O)N(O)CCCCCNC(=O)[C@H]1C[C@H]2C=C[C@H]1C2`, the result was Active.

The next data set has as its system SK-N-BE(2)-M17. Briefly: Cytoprotection against H2O2-induced cell death in human SK-N-BE(2)-M17 cells assessed as increase in cell viability at 100 uM treated 2 hrs post 0.8 mM H2O2 treatment measured after 24 hrs by MTT assay.
Conditions: not given
The class given is functional, cell-based.
`CC(=O)N(O)CCCCCNC(=O)CCC(=O)N(O)CCCCCNC(=O)CCC(=O)N(O)CCCCCNC(=O)CC12CC3CC(CC(Br)(C3)C1)C2`: the result was inactive.
Regarding `CC(=O)N(O)CCCCCNC(=O)CCC(=O)N(O)CCCCCNC(=O)CCC(=O)N(O)CCCCCNC(=O)[C@H]1C[C@H]2C=C[C@H]1C2`, the result was Active.

For another data set, the system named is SK-N-BE(2)-M17. Briefly: Cytoprotection against PQ-induced cell death in human SK-N-BE(2)-M17 cells assessed as increase in cell viability at 100 uM pretreated for 2 hrs followed by 1 mM PQ addition measured after 24 hrs by MTT assay. The class given is functional, cell-based.
Conditions: not given
Turning to `CC(=O)N(O)CCCCCNC(=O)CCC(=O)N(O)CCCCCNC(=O)CCC(=O)N(O)CCCCCNC(=O)CC12CC3CC(CC(O)(C3)C1)C2`, the outcome was Active.
Take `CC(=O)N(O)CCCCCNC(=O)CCC(=O)N(O)CCCCCNC(=O)CCC(=O)N(O)CCCCCNC(=O)CC12CC3CC(CC(Br)(C3)C1)C2`: the outcome was inactive.
Regarding `CC(=O)N(O)CCCCCNC(=O)CCC(=O)N(O)CCCCCNC(=O)CCC(=O)N(O)CCCCCNC(=O)[C@H]1C[C@H]2C=C[C@H]1C2`, the outcome was Active.

The next data set relates to SK-N-BE(2)-M17. The experiment in a line: Cytoprotection against PQ-induced cell death in human SK-N-BE(2)-M17 cells assessed as increase in cell viability at 100 uM treated 2 hrs post 2 mM PQ treatment measured after 24 hrs by MTT assay. It counts as functional, cell-based.
Conditions: not given
As for `CC(=O)N(O)CCCCCNC(=O)CCC(=O)N(O)CCCCCNC(=O)CCC(=O)N(O)CCCCCNC(=O)CC12CC3CC(CC(Br)(C3)C1)C2`, the result was inactive.
Still for that read-out and setting: for `CC(=O)N(O)CCCCCNC(=O)CCC(=O)N(O)CCCCCNC(=O)CCC(=O)N(O)CCCCCNC(=O)[C@H]1C[C@H]2C=C[C@H]1C2` the value was “Active”.

The next data set has as its system SK-N-BE(2)-M17. Briefly: Cytotoxicity against human SK-N-BE(2)-M17 cells at 100 uM 24 hrs by LDH release assay. It counts as cell-based. To be noted: sk-n-be(2)-m17, 24 h. (In general: LDH in the medium is a marker of cell lysis.)
Turning to `CC(=O)N(O)CCCCCNC(=O)CCC(=O)N(O)CCCCCNC(=O)CCC(=O)N(O)CCCCCNC(=O)CC12CC3CC(CC(O)(C3)C1)C2`, the Activity result is “Non-Toxic”.
Consider `CC(=O)N(O)CCCCCNC(=O)CCC(=O)N(O)CCCCCNC(=O)CCC(=O)N(O)CCCCCNC(=O)CC12CC3CC(CC(Br)(C3)C1)C2`, for which the Activity entry is on record as “Non-Toxic”.
Same read-out and setting: for `CC(=O)N(O)CCCCCNC(=O)CCC(=O)N(O)CCCCCNC(=O)CCC(=O)N(O)CCCCCNC(=O)[C@H]1C[C@H]2C=C[C@H]1C2` the value was “Non-Toxic”.

System in the next data set: not listed separately
The experiment in a line: Binding affinity to Fe3+ assessed as [M+H]+ adduct formation by LC-MS/MS analysis.
Conditions: not given
In the case of `CC(=O)N(O)CCCCCNC(=O)CCC(=O)N(O)CCCCCNC(=O)CCC(=O)N(O)CCCCCNC(=O)CC12CC3CC(CC(O)(C3)C1)C2`, the result was Active.
Regarding `CC(=O)N(O)CCCCCNC(=O)CCC(=O)N(O)CCCCCNC(=O)CCC(=O)N(O)CCCCCNC(=O)CC12CC3CC(CC(Br)(C3)C1)C2`, the outcome was Active.
For the molecule `CC(=O)N(O)CCCCCNC(=O)CCC(=O)N(O)CCCCCNC(=O)CCC(=O)N(O)CCCCCNC(=O)[C@H]1C[C@H]2C=C[C@H]1C2`, the outcome was Active.
